Test results published in BigSolDB 2.1.
Where “and” joins values, the source holds several entries; their conditions need not be identical. Equal values may be shown once.

NCCC(=O)O
in methanol
Details	solubility (mole fraction)
288.15 K	0.115
293.15 K	0.122
298.15 K	0.131
303.15 K	0.14
308.15 K	0.152
313.15 K	0.164
318.15 K	0.173
323.15 K	0.183

C=C1CC[C@H](O)C/C1=C/C=C1\CCC[C@]2(C)[C@@H]([C@H](C)CCCC(C)C)CC[C@@H]12
in water
Details	solubility (mole fraction)
273.2 K	1.97e-07
278.2 K	2.95e-07
283.2 K	4.38e-07
288.2 K	5.71e-07
298.2 K	1.06e-06

Cc1cnc(NC(=O)C2=C(O)c3ccccc3S(=O)(=O)N2C)s1
solubility (mole fraction)
Details	293.15 K	298.15 K	303.15 K	308.15 K	313.15 K
in methanol	4.02e-05	4.87e-05 and 3.93e-05	5.88e-05	7.04e-05	8.46e-05
in water	–	4.23e-06	–	–	–

O=c1[nH]cc(C(F)(F)F)c(=O)[nH]1
Details	solubility (mole fraction)
in water, 298.15 K	0.00268

CCCCCC
in water
Details	solubility (mole fraction)
280.8 K	3.1e-06
295.5 K	2.7e-06

O=C1N2CN3C(=O)N4CN5C(=O)N6CN7C(=O)N8CN9C(=O)N%10CN%11C(=O)N%12CN1C1C2N2CN%13C(=O)N(CN%14C(=O)N(CN%15C(=O)N(CN%16C(=O)N(CN%17C(=O)N(CN1C2=O)C%12C%11%17)C%10C9%16)C8C7%15)C6C5%14)C4C3%13 (stereo not given)
in water
Details	solubility (mole fraction)
293.15 K	0.00231
303.15 K	0.0027
313.15 K	0.00336
323.15 K	0.00403
333.15 K	0.00481
343.15 K	0.00573
353.15 K	0.00662

CC(=O)OCC(=O)[C@@]12N=C(C)O[C@@H]1C[C@H]1[C@@H]3CCC4=CC(=O)C=C[C@]4(C)[C@H]3[C@@H](O)C[C@@]12C
303.15 K
Details	solubility (mole fraction)
in acetone	0.00721
in ethanol	0.0024
in ethyl acetate	0.00399
in isopropanol	0.00204

c1ccc(-c2cnc(-c3ccc(-c4ncc(-c5ccccc5)o4)cc3)o2)cc1
298.15 K
Details	solubility (mole fraction)
in acetone	0.00013
in ethanol	8.43e-06
in water	7.3e-10

C[C@@H]1CC[C@H]2[C@@H](C)C(=O)O[C@@H]3O[C@@]4(C)CC[C@@H]1[C@]32OO4
in ethanol
Details	solubility (mole fraction)
278.2 K	0.000998
286.2 K	0.00181
303.2 K	0.00297
313.2 K	0.00457
323.2 K	0.00801
343.2 K	0.0159

c1ccc2cc3ccccc3cc2c1
298.15 K
Details	solubility (mole fraction)
in 2,2,4-trimethylpentane	0.00107
in 2-butoxyethanol	0.00379
in 2-ethoxyethanol	0.00292
in 2-methoxyethanol	0.00221
in 2-pentanol	0.0008
in 2-propoxyethanol	0.00334
in MTBE	0.00305
in cyclohexane	0.00155
in isobutanol	0.00047
in isopentanol	0.000727
in isopropanol	0.000411
in methylcyclohexane	0.00165
in n-butanol	0.000801
in n-heptane	0.00157 and 0.00158
in n-hexane	0.00127
in n-octane	0.00184
in n-octanol	0.00216
in n-pentanol	0.0011
in n-propanol	0.000591
in sec-butanol	0.000585
in tert-amyl alcohol	0.00079
in tetrahydropyran	0.0102

c1ccc(P(c2ccccc2)c2ccccc2)cc1
in ethanol
Details	solubility (mole fraction)
303.5 K	0.009
308.3 K	0.0117
313.3 K	0.0162
318.6 K	0.0225
323.2 K	0.0279
327.9 K	0.0385
333 K	0.0494

c1ccc2c(c1)[nH]c1ccccc12
298.15 K
Details	solubility (mole fraction)
in 1-chlorooctane	0.00242
in 1-chlorotetradecane	0.0024
in chlorocyclohexane	0.00291
in dibutyl ether	0.00501

O=[N+]([O-])c1ccc(N/N=C/c2ccco2)cc1
Details	solubility (mole fraction)
in water, 298.15 K	1.72e-07

F[P-](F)(F)(F)(F)F.F[P-](F)(F)(F)(F)F.c1cc[n+](CCCCCC[n+]2ccccc2)cc1
solubility (mole fraction)
Details	288.15 K	288.25 K	293.15 K	294.85 K	298.15 K	299.15 K	303.15 K	303.55 K	308.25 K
in acetone	0.00399	–	0.00402	–	0.00409	–	0.00431	–	–
in water	–	2.7e-05	–	4.2e-05	–	5.4e-05	–	7e-05	9e-05
